From patent publication US11535610B2, “Acid addition salts of benzimidazole derivative” (HK INNO.N CORPORATION, priority 2016, dated 2022)
Read-outs that look alike come from different tables or passages of the source.

Legend:
[1] = Comparative test on solid-phase stability (Karl Fischer, HPLC); assay type: physicochemical; settings: for Total impurities (%), 1 month elapsed / Total impurities (%), Initial: HPLC area %; for Total impurities (%), 1 month elapsed / Moisture (%), 1 month elapsed: PE-bag, 75% RH, one month; for Moisture (%), 1 month elapsed / Moisture (%), Initial: Karl Fischer
[2] = Comparative test on precipitation stability in pH 6.8 buffer; assay type: physicochemical; settings: 10 mg/ml in buffer solution of pH 6.8, stored at 37° C. for 24 hours
[3] = Comparative test on liquid-phase stability (HPLC, degradation product of formula 4); assay type: physicochemical; settings: for Concentration (%) of degradation product (compound of the formula 4), Initial / Concentration (%) of degradation product (compound of the formula 4), 1 day (24 hours) elapsed: 20 mg/ml
[4] = Water solubility at room temperature of 1:1 co-crystals of the compound of the formula 1 with co-crystal formers; settings: co-crystal at 1:1 molar ratio with compound of the formula 1
[5] = Comparative test on solubility of amorphous acid addition salts (supersaturation method); settings: room temperature, solubility of acid addition salt per se, not converted to free base; for solubility: water, thermodynamic from solid, Water solubility

Concentration of degradation products (%), Initial [1] [%] | Total impurities (%), 1 month elapsed [1] [%] | Total impurities (%), Initial [1] [%] | Moisture (%), 1 month elapsed [1] [%] | Moisture (%), Initial [1] [%] | Soil precipitation or not [2] | Compound | Water-solubility [4] [µg/mL] | further results
0.02 | 0.07 | 0.07 | 0.1 | 0.1 | a homogenous solution was maintained | O=C1CC[C@@H](C(=O)O)N1 [L-pyroglutamic acid] | – | Concentration of degradation products (%), 1 month elapsed ([1]; 1 month): 0.02%; Concentration (%) of degradation product (compound of the formula 4), Initial [3]: 0.02%; Concentration (%) of degradation product (compound of the formula 4), 1 day (24 hours) elapsed [3]: 0.05%
0.09 | 0.43 | 0.14 | 0.3 | 0.1 | Precipitated | Fumaric acid | – | Concentration of degradation products (%), 1 month elapsed [1]: 0.12%; Soil precipitation or not ([2]; listed as fumaric acid): a solid was precipitated; physical state of the solution (homogenous liquid-phase state or gel) ([3]; 20 mg/ml in purified water, stirred at 40° C.): formed a sticky gel
0.04 | 0.06 | 0.06 | 0.1 | 0.1 | a homogenous solution was maintained | Cc1nc2c(O[C@H]3CCOc4cc(F)cc(F)c43)cc(C(=O)N(C)C)cc2[nH]1 | – | Concentration of degradation products (%), 1 month elapsed ([1]; 1 month): 0.04%; Concentration (%) of degradation product (compound of the formula 4), Initial [3]: 0.03%; Concentration (%) of degradation product (compound of the formula 4), 1 day (24 hours) elapsed [3]: 0.07%; solubility [5]: ≥ 50000 µg/mL

Further lines, the compound ahead of its results:

Compound | Concentration of degradation products (%), Initial [1] [%] | Total impurities (%), 1 month elapsed [1] [%] | Total impurities (%), Initial [1] [%] | Moisture (%), 1 month elapsed [1] [%] | Moisture (%), Initial [1] [%] | Soil precipitation or not [2] | Water-solubility [4] [µg/mL] | further results
C[C@H](N)C(=O)O [L-Alanine] | – | – | – | – | – | – | 4000 | –
Cc1ccc(S(=O)(=O)O)cc1 [p-toluenesulfonic acid] | – | – | – | – | – | – | – | Water solubility [5]: 27000 µg/mL
NCCCC[C@H](N)C(=O)O [L-Lysine] | – | – | – | – | – | – | 8000 | –
Cc1nc2c(OC3CCOc4cc(F)cc(F)c43)cc(C(=O)N(C)C)cc2[nH]1 (centres unmarked) [Amorphous free base] | – | – | – | – | – | – | – | solubility [5]: 3000 µg/mL
CC(C)C[C@H](N)C(=O)O [L-leucine] | – | – | – | – | – | – | 12000 | –
CC(C)[C@H](N)C(=O)O [L-Valine] | – | – | – | – | – | – | 3000 | –
O=S(=O)(O)c1cccc2c(S(=O)(=O)O)cccc12 [1.5-naphinalenedisulfonic acid] | – | – | – | – | – | – | – | Water solubility [5]: 2500 µg/mL
